# Earlier results, collected in Sander's compilation of Henry's law constants.
# “And” between values parts separate entries of the source, which are not always exact repeats. Identical values can stand only once.
# Assay: Henry solubility constant Hcp at 298.15 K (mol/(m3 Pa))
# Settings: cited value
# [1] = reference: Burkholder et al. (2015)
# [2] = reference: Burkholder et al. (2019)
# [3] = reference: Sander et al. (2011)
# [4] = reference: Barcelo and Hennion (1997)
structure (smiles),measurement,setting,value
"Brc1ccc(Oc2c(Br)cc(Br)cc2Br)c(Br)c1 [2,2',4,4',6-pentabromodiphenyl ether]",Henry solubility constant Hcp,reference: Wania and Dugani (2003),2.6
COc1cc(C=O)ccc1O [vanillin],Henry solubility constant Hcp,reference: Brockbank (2013),1700
CC(C)C [2-methylpropane],Henry solubility constant Hcp,[1],9.1e-06
same,Henry solubility constant Hcp,[2],9.1e-06
same,Henry solubility constant Hcp,reference: Hayduk (1986),9.1e-06
same,Henry solubility constant Hcp,reference: Sander et al. (2006),9.1e-06
same,Henry solubility constant Hcp,[3],9.1e-06
CC(=O)OO [ethanoic peroxyacid],Henry solubility constant Hcp,[1],8.3
same,Henry solubility constant Hcp,[2],8.3
same,Henry solubility constant Hcp,[3],8.3
CC(=O)CC(C)C [4-methyl-2-pentanone],Henry solubility constant Hcp,reference: Brockbank (2013),0.069
same,Henry solubility constant Hcp,reference: Howard (1990),0.11
C/C=C/CCCC [trans-2-heptene],Henry solubility constant Hcp,reference: Brockbank (2013),2.4e-05
CC(C)OC(=O)Nc1cccc(Cl)c1 [chlorpropham],Henry solubility constant Hcp,[4],47
"CC(=O)C(Cl)Cl [1,1-dichloro-2-propanone]",Henry solubility constant Hcp,[1],0.33
same,Henry solubility constant Hcp,[2],0.33
"ClC1C(Cl)C(Cl)C(Cl)C(Cl)C1Cl (stereo not drawn) [β-1,2,3,4,5,6-hexachlorocyclohexane]",Henry solubility constant Hcp,reference: Xiao et al. (2004),27
CC(C)S [2-propanethiol],Henry solubility constant Hcp,reference: Brockbank (2013),0.0013
FC(F)(F)Cl [chlorotrifluoromethane],Henry solubility constant Hcp,[1],9.9e-06
same,Henry solubility constant Hcp,[2],9.9e-06
same,Henry solubility constant Hcp,[3],9.9e-06
O=C(O)C(Cl)Cl [dichloroethanoic acid],Henry solubility constant Hcp,[1],1200
same,Henry solubility constant Hcp,[2],1200
same,Henry solubility constant Hcp,[3],1200
CC(=O)Oc1ccccc1 [phenyl ethanoate],Henry solubility constant Hcp,reference: Brockbank (2013),1.3
CCCCOCCOCCOCCCC [diethylene glycol dibutyl ether],Henry solubility constant Hcp,reference: Brockbank (2013),2.5
CCCOC(=O)c1ccccc1C(=O)OCCC [dipropyl phthalate],Henry solubility constant Hcp,reference: Brockbank (2013),22
CCN(CC)c1ccccc1 [(diethylamino)-benzene],Henry solubility constant Hcp,reference: Brockbank (2013),0.067
CCOC(=O)C(C)C [ethyl 2-methylpropanoate],Henry solubility constant Hcp,reference: Brockbank (2013),0.015
CCc1ccccc1N [2-ethylaniline],Henry solubility constant Hcp,reference: Brockbank (2013),2.6
C=CCl [chloroethene],Henry solubility constant Hcp,reference: Brockbank (2013),0.00043
same,Henry solubility constant Hcp,[1],0.00038
same,Henry solubility constant Hcp,[2],0.00038
Nc1ccccc1 [aminobenzene],Henry solubility constant Hcp,reference: Brockbank (2013),4.9
"OC[C@@H](O)[C@@H](O)CO [2(R),3(S)-1,2,3,4-butanetetrol]",Henry solubility constant Hcp,[1],1.1e+10
same,Henry solubility constant Hcp,[2],1.1e+10
"COC(=O)OC [carbonic acid, dimethyl ester]",Henry solubility constant Hcp,reference: Brockbank (2013),0.15
same,Henry solubility constant Hcp,[1],0.16
same,Henry solubility constant Hcp,[2],0.16
COC(=O)c1ccccc1C(=O)OC [dimethyl phthalate],Henry solubility constant Hcp,reference: Brockbank (2013),51
same,Henry solubility constant Hcp,reference: Goldstein (1982),29 and 30
same,Henry solubility constant Hcp,reference: McCarty (1980),23
CC1CCCCC1 [methylcyclohexane],Henry solubility constant Hcp,reference: Brockbank (2013),2.6e-05
"ClC(Cl)C(Cl)Cl [1,1,2,2-tetrachloroethane]",Henry solubility constant Hcp,reference: Barr and Newsham (1987),0.018
same,Henry solubility constant Hcp,reference: Brockbank (2013),0.024
same,Henry solubility constant Hcp,[1],0.023
same,Henry solubility constant Hcp,[2],0.023
same,Henry solubility constant Hcp,reference: Goldstein (1982),0.023
CCN [ethanamine],Henry solubility constant Hcp,reference: Brockbank (2013),0.84
same,Henry solubility constant Hcp,[1],0.8
same,Henry solubility constant Hcp,[2],0.8
II [iodine (molecular)],Henry solubility constant Hcp,reference: Berdnikov and Bazhin (1970),0.031
same,Henry solubility constant Hcp,reference: Palmer et al. (1985),0.03
same,Henry solubility constant Hcp,reference: Thompson and Zafiriou (1983),0.011
CCC(=O)CC [3-pentanone],Henry solubility constant Hcp,reference: Brockbank (2013),0.089
same,Henry solubility constant Hcp,reference: Cabani et al. (1981),0.13
same,Henry solubility constant Hcp,reference: Howard (1993),0.11
Cc1cccc(C=O)c1 [3-methylbenzaldehyde],Henry solubility constant Hcp,reference: Brockbank (2013),0.35
CCCCCCl [1-chloropentane],Henry solubility constant Hcp,reference: Brockbank (2013),0.00041
"CCOC(=O)CC(=O)OCC [propanedioic acid, diethyl ester]",Henry solubility constant Hcp,reference: Brockbank (2013),3.9
c1ccc(Nc2ccccc2)cc1 [diphenylamine],Henry solubility constant Hcp,reference: Howard et al. (1991),3.5
CCOP(=S)(OCC)Oc1nc(Cl)c(Cl)cc1Cl [chlorpyrifos],Henry solubility constant Hcp,[4],0.0056
same,Henry solubility constant Hcp,reference: HSDB (2015),3.4
same,Henry solubility constant Hcp,reference: Muir et al. (2004),1.8 and 2.1
"CCOC(=O)C(C)(C)C [ethyl 2,2-dimethylpropanoate]",Henry solubility constant Hcp,reference: Brockbank (2013),0.0064
[HH] [hydrogen],Henry solubility constant Hcp,reference: Himmelblau (1960),7.8e-06
same,Henry solubility constant Hcp,reference: Hine and Weimar (1965),7.7e-06
same,Henry solubility constant Hcp,reference: Young (1981a),7.7e-06
COc1c(Cl)ccc(Cl)c1C(=O)O [dicamba],Henry solubility constant Hcp,[4],82
CSc1nc(NC(C)C)nc(NC(C)C)n1 [prometryn],Henry solubility constant Hcp,[4],20
